Experimental data as given in patent US9931327B2, “Derivatives of 1-phenyl-2-pyridinyl alkyl alcohols as phosphodiesterase inhibitors” (Chiesi Farmaceutici S.p.A., priority 2011, dated 2018).
Counter-ions that a name gives are not always drawn.

Tested on: LPS-induced TNF-α release in peripheral blood mononuclear cells (PBMCs)
Test: In vitro determination of PDE4 inhibitory activity in the PBMCs assay (LPS-induced TNF-α release)
Type: cell-based, human
Conditions: PBMC; human PBMCs, LPS 3 ng/ml, 18 hours, TNF-α by ELISA; read-out: PDE4 inhibition (IC50, 50% inhibition of LPS-induced TNF-α release)
Experimental: The assay, which is based on the known inhibitory activity exerted by PDE4 inhibitors on the lipopolyshaccarides (LPS)-induced tumour necrosis factor-alpha (TNF-α release in peripheral blood mononuclear cells (PBMCs), was performed according to a method previously described (Hatzelmann A et al., J. Pharmacol. Exp. Ther., 2001; 297:267-279; and Draheim R et al., J. Pharmacol. Exp. Ther., 2004; 308:555-563, which are incorporated herein by reference in their entireties). Cryopreserved human PBMCs, (100 l/well) were incubated in 96-well plates (10^5 cells/well), for 30 minutes, in the presence or absence (50 microl) of the test compounds whose concentrations ranged from 10^−12 M to 10^−6 M or from […] to 10^−7 M. Subsequently, LPS (3 ng/ml) was added.
After 18 hours of incubation at 37° C. in a humidified incubator under an atmosphere of 95% air and 5% CO2, culture medium was collected and TNF-α measured by ELISA. The results of the tested compounds, representatives of the invention, expressed as mean±95% confidence limits of the molar concentration of the test compound producing 50% inhibition of LPS-induced TNF-α release (IC50) are shown in the following Table: […]

How did the IC50 turn out when `O=C(O[C@@H](Cc1c(Cl)c[n+]([O-])cc1Cl)c1ccc(OC(F)F)c(OCC2CC2)c1)[C@@H]1SCCN1S(=O)(=O)c1cccc(CO)c1` [Compound 271, 3,5-dichloro-4-((S)-2-(3-(cyclopropylmethoxy)-4-(difluoromethoxy)phenyl)-2-((S)-3-(3-(hydroxymethyl)phenylsulfonyl)thiazolidine-2-carbonyloxy)ethyl)pyridine 1-oxide] was run?
The IC50 was < 0.1 nM.

How did the IC50 turn out when `O=C(O[C@@H](Cc1c(Cl)c[n+]([O-])cc1Cl)c1ccc(OC(F)F)c(OCC2CC2)c1)[C@@H]1SCCN1S(=O)(=O)c1ccc2c(c1)OCCO2` [Compound 201, 3,5-dichloro-4-((S)-2-(3-(cyclopropylmethoxy)-4-(difluoromethoxy)phenyl)-2-((S)-3-(2,3-dihydrobenzo[b][1,4]dioxin-6-ylsulfonyl)thiazolidine-2-carbonyloxy)ethyl)pyridine 1-oxide] was run?
The IC50 was 0.1 to 1 nM.

With `CN(C)C(=O)c1cccc(S(=O)(=O)N2CCS[C@H]2C(=O)O[C@@H](Cc2c(Cl)c[n+]([O-])cc2Cl)c2ccc(OC(F)F)c(OCC3CC3)c2)c1` [Compound 52, 3,5-dichloro-4-((S)-2-(3-(cyclopropylmethoxy)-4-(difluoromethoxy)phenyl)-2-((S)-3-(3-(dimethylcarbamoyl)phenylsulfonyl)thiazolidine-2-carbonyloxy)ethyl)pyridine 1-oxide] as the compound, how does the IC50 read?
The IC50 was < 0.1 nM.

For `CC(=O)c1cccc(S(=O)(=O)N2CCS[C@H]2C(=O)O[C@@H](Cc2c(Cl)c[n+]([O-])cc2Cl)c2ccc(OC(F)F)c(OCC3CC3)c2)c1` [Compound 117, 4-((S)-2-((S)-3-(3-acetylphenylsulfonyl)thiazolidine-2-carbonyloxy)-2-(3-(cyclopropylmethoxy)-4-(difluoromethoxy)phenyl)ethyl)-3,5-dichloropyridine 1-oxide], which IC50 is on record?
Its IC50 is 0.1 to 1 nM.

With `O=C(CN1CCSC1C(=O)O[C@@H](Cc1c(Cl)c[n+]([O-])cc1Cl)c1ccc(OC(F)F)c(OCC2CC2)c1)c1cccs1` (stereo partly drawn) [Compound 144, 3,5-dichloro-4-((2S)-2-(3-(cyclopropylmethoxy)-4-(difluoromethoxy)phenyl)-2-(3-(2-oxo-2-(thiophen-2-yl)ethyl)thiazolidine-2-carbonyloxy)ethyl)pyridine 1-oxide] as the compound, how does the IC50 read?
Its IC50 is 0.1 to 1 nM.

Which IC50 does the source give for `Cc1noc2ncc(S(=O)(=O)N3CSC[C@H]3C(=O)O[C@@H](Cc3c(Cl)c[n+]([O-])cc3Cl)c3ccc(OC(F)F)c(OCC4CC4)c3)cc12` [Compound 253, 3,5-dichloro-4-((S)-2-(3-(cyclopropylmethoxy)-4-(difluoromethoxy)phenyl)-2-((R)-3-(3-methylisoxazolo[5,4-b]pyridin-5-ylsulfonyl)thiazolidine-4-carbonyloxy)ethyl)pyridine 1-oxide] here?
Its IC50 is 0.1 to 1 nM.

Which IC50 does the source give for `COc1ccc(S(=O)(=O)N2CCCC[C@H]2C(=O)O[C@@H](Cc2c(Cl)c[n+]([O-])cc2Cl)c2ccc(OC(F)F)c(OCC3CC3)c2)cc1OC` [Compound 98, 3,5-dichloro-4-((S)-2-(3-(cyclopropylmethoxy)-4-(difluoromethoxy)phenyl)-2-((S)-1-(3,4-dimethoxyphenylsulfonyl)piperidine-2-carbonyloxy)ethyl)pyridine 1-oxide] here?
The IC50 was 0.1 to 1 nM.

With `O=C(O[C@@H](Cc1c(Cl)c[n+]([O-])cc1Cl)c1ccc(OC(F)F)c(OCC2CC2)c1)[C@@H]1SCCN1S(=O)(=O)CCN1CCOCC1` [Compound 287, 3,5-dichloro-4-((S)-2-(3-(cyclopropylmethoxy)-4-(difluoromethoxy)phenyl)-2-((S)-3-(2-morpholinoethylsulfonyl)thiazolidine-2-carbonyloxy)ethyl)pyridine 1-oxide] as the compound, how does the IC50 read?
Its IC50 is < 0.1 nM.

With `O=C(O[C@@H](Cc1c(Cl)c[n+]([O-])cc1Cl)c1ccc(OC(F)F)c(OCC2CC2)c1)[C@@H]1SCCN1S(=O)(=O)c1ccc(N2CCOCC2)nc1` [Compound 105, 3,5-dichloro-4-((S)-2-(3-(cyclopropylmethoxy)-4-(difluoromethoxy)phenyl)-2-((S)-3-(6-morpholinopyridin-3-ylsulfonyl)thiazolidine-2-carbonyloxy)ethyl)pyridine 1-oxide] as the compound, how does the IC50 read?
The IC50 was 0.1 to 1 nM.

`CN(C)Cc1ccc(C(=O)N2CCSC2C(=O)O[C@@H](Cc2c(Cl)c[n+]([O-])cc2Cl)c2ccc(OC(F)F)c(OCC3CC3)c2)s1` (stereo partly drawn) [Compound 51, 3,5-dichloro-4-((2S)-2-(3-(cyclopropylmethoxy)-4-(difluoromethoxy)phenyl)-2-(3-(5-((dimethylamino)methyl)thiophene-2-carbonyl)thiazolidine-2-carbonyloxy)ethyl)pyridine 1-oxide formate] was tested. Which IC50 did it give?
The IC50 was 0.1 to 1 nM.

`O=C1NC(=O)c2cc(S(=O)(=O)N3CCSC3C(=O)O[C@@H](Cc3c(Cl)c[n+]([O-])cc3Cl)c3ccc(OC(F)F)c(OCC4CC4)c3)ccc21` (stereo partly drawn) [Compound 58, 3,5-dichloro-4-((2S)-2-(3-(cyclopropylmethoxy)-4-(difluoromethoxy)phenyl)-2-(3-(1,3-dioxoisoindolin-5-ylsulfonyl)thiazolidine-2-carbonyloxy)ethyl)pyridine 1-oxide] was tested. Which IC50 did it give?
The IC50 was 0.1 to 1 nM.

How did the IC50 turn out when `Cc1noc2ncc(S(=O)(=O)N3CCC[C@H]3C(=O)O[C@@H](Cc3c(Cl)c[n+]([O-])cc3Cl)c3ccc(OC(F)F)c(OCC4CC4)c3)cc12` [Compound 251, 3,5-dichloro-4-((S)-2-(3-(cyclopropylmethoxy)-4-(difluoromethoxy)phenyl)-2-((S)-1-(3-methylisoxazolo[5,4-b]pyridin-5-ylsulfonyl)pyrrolidine-2-carbonyloxy)ethyl)pyridine 1-oxide] was run?
The IC50 was < 0.1 nM.

Which IC50 does the source give for `O=C(O[C@@H](Cc1c(Cl)c[n+]([O-])cc1Cl)c1ccc(OC(F)F)c(OCC2CC2)c1)[C@@H]1SCCN1C(=O)c1ccc(CN2CCS(=O)(=O)CC2)cc1` [Compound 40, 3,5-dichloro-4-((S)-2-(3-(cyclopropylmethoxy)-4-(difluoromethoxy)phenyl)-2-((S)-3-(4-(1,1-dioxothiomorpholinomethyl)benzoyl)thiazolidine-2-carbonyloxy)ethyl)pyridine 1-oxide] here?
The IC50 was 0.1 to 1 nM.

`CNS(=O)(=O)c1ccc(S(=O)(=O)N2CCS[C@H]2C(=O)O[C@@H](Cc2c(Cl)c[n+]([O-])cc2Cl)c2ccc(OC(F)F)c(OCC3CC3)c2)cc1` [Compound 94, 3,5-dichloro-4-((S)-2-(3-(cyclopropylmethoxy)-4-(difluoromethoxy)phenyl)-2-((S)-3-(4-(N-methylsulfamoyl)phenylsulfonyl)thiazolidine-2-carbonyloxy)ethyl)pyridine 1-oxide] was tested. Which IC50 did it give?
Its IC50 is < 0.1 nM.

How did the IC50 turn out when `CN(C)C(=O)c1ccc(S(=O)(=O)N2CCSC2C(=O)O[C@@H](Cc2c(Cl)c[n+]([O-])cc2Cl)c2ccc(OC(F)F)c(OCC3CC3)c2)cc1` (stereo partly drawn) [Compound 125, 3,5-dichloro-4-((2S)-2-(3-(cyclopropylmethoxy)-4-(difluoromethoxy)phenyl)-2-(3-(4-(dimethylcarbamoyl)phenylsulfonyl)thiazolidine-2-carbonyloxy)ethyl)pyridine 1-oxide] was run?
The IC50 was 0.1 to 1 nM.

For `COc1ccc(S(=O)(=O)N2CCS[C@H]2C(=O)O[C@@H](Cc2c(Cl)c[n+]([O-])cc2Cl)c2ccc(OC(F)F)c(OCC3CC3)c2)cc1C(=O)N(C)C` [Compound 131, 3,5-dichloro-4-((S)-2-(3-(cyclopropylmethoxy)-4-(difluoromethoxy)phenyl)-2-((S)-3-(3-(dimethylcarbamoyl)-4-methoxyphenylsulfonyl)thiazolidine-2-carbonyloxy)ethyl)pyridine 1-oxide], which IC50 is on record?
The IC50 was < 0.1 nM.

With `N#Cc1ccc(S(=O)(=O)N2CCS[C@H]2C(=O)O[C@@H](Cc2c(Cl)c[n+]([O-])cc2Cl)c2ccc(OC(F)F)c(OCC3CC3)c2)cc1` [Compound 206, 3,5-dichloro-4-((S)-2-((S)-3-(4-cyanophenylsulfonyl)thiazolidine-2-carbonyloxy)-2-(3-(cyclopropylmethoxy)-4-(difluoromethoxy)phenyl)ethyl)pyridine 1-oxide] as the compound, how does the IC50 read?
The IC50 was < 0.1 nM.

How did the IC50 turn out when `CN(C)S(=O)(=O)c1cccc(S(=O)(=O)N2CCCC[C@H]2C(=O)O[C@@H](Cc2c(Cl)c[n+]([O-])cc2Cl)c2ccc(OC(F)F)c(OCC3CC3)c2)c1` [Compound 113, 3,5-dichloro-4-((S)-2-(3-(cyclopropylmethoxy)-4-(difluoromethoxy)phenyl)-2-((S)-1-(3-(N,N-dimethylsulfamoyl)phenylsulfonyl)piperidine-2-carbonyloxy)ethyl)pyridine 1-oxide] was run?
Its IC50 is < 0.1 nM.

Which IC50 does the source give for `COc1ccc(S(=O)(=O)N2CCSC2C(=O)O[C@@H](Cc2c(Cl)c[n+]([O-])cc2Cl)c2ccc(OC(F)F)c(OCC3CC3)c2)cc1C(=O)N1CCN(C)CC1` (stereo partly drawn) [Compound 127, 3,5-dichloro-4-((2S)-2-(3-(cyclopropylmethoxy)-4-(difluoromethoxy)phenyl)-2-(3-(4-methoxy-3-(4-methylpiperazine-1-carbonyl)phenylsulfonyl)thiazolidine-2-carbonyloxy)ethyl)pyridine 1-oxide] here?
Its IC50 is 0.1 to 1 nM.

With `CN(C)C(=O)c1cccc(C(=O)N2CCC[C@@H]2C(=O)O[C@@H](Cc2c(Cl)c[n+]([O-])cc2Cl)c2ccc(OC(F)F)c(OCC3CC3)c2)c1` [Compound 185, 3,5-dichloro-4-((S)-2-(3-(cyclopropylmethoxy)-4-(difluoromethoxy)phenyl)-2-((R)-1-(3-(dimethylcarbamoyl)benzoyl)pyrrolidine-2-carbonyloxy)ethyl)pyridine 1-oxide] as the compound, how does the IC50 read?
The IC50 was 0.1 to 1 nM.
